{
  "source": "patent US5530141A",
  "about": "“2,4-diaryl-1,3-dithiolanes; 2,4-diaryl-1,3-dioxolanes; 2,4-diaryl-1,3-oxathiolanes; and 2,5-diaryl-1,3-oxathiolanes for the treatment of disorders mediated by platelet activating factor or products of 5-lipoxygenase” (Center for Innovative Technology, priority 1992, dated 1996)",
  "origin": "cited, not measured here",
  "key": {"[1]": {"conditions": "cited from earlier work"}, "PAF receptor sites": {"tested_on": "PAF receptor sites", "conditions": "cited from earlier work"}, "[2]": {"tested_on": "PAF-induced rat cutaneous vascular permeability", "conditions": "cited from earlier work"}, "5-lipoxygenase": {"tested_on": "5-lipoxygenase", "conditions": "cited from earlier work"}},
  "data": [
    {"molecule": "1-O-alkyl-2-acetyl-sn-glycerol-3-phosphorylcholine [PAF]", "values": [
      {"measurement": "plasma half life", "setting": "[1]", "result": "2 to 4", "unit": "min"}
    ]},
    {"molecule": "COc1cc([C@H]2CC[C@H](c3cc(OC)c(OC)c(OC)c3)O2)cc(OC)c1OC", "note": "(relative stereo) [L-652,731, trans-2,5-bis-(3,4,5-trimethoxyphenyl) tetrahydrofuran]", "values": [
      {"measurement": "inhibits the binding of tritiated PAF to PAF receptor sites", "setting": "PAF receptor sites; Hwang et al. 1985", "result": "inhibits the binding of tritiated PAF to PAF receptor sites"},
      {"measurement": "potency of trans-L-652,731 relative to cis-L-652,731", "setting": "PAF receptor sites; more potent than cis-L-652,731", "result": "approximately 1000 times"},
      {"measurement": "inhibition of PAF-induced rat cutaneous vascular permeability", "setting": "[2]; dosage of 30 mg/kg body weight, rat", "result": "inhibit PAF-induced rat cutaneous vascular permeability"},
      {"measurement": "oral activity", "setting": "[2]; oral", "result": "orally active"},
      {"measurement": "effect on the enzyme 5-lipoxygenase", "setting": "5-lipoxygenase", "result": "no effect on the enzyme 5-lipoxygenase"}
    ]}
  ]
}
